Data taken from patent US20250302821A1, “SYNERGISTIC ANTIFUNGAL COMPOSITION AND METHOD” (ST. JUDE CHILDREN'S RESEARCH HOSPITAL, INC., priority 2022, published 2025).

Experiments:
[1] = tested on: fungi; experiment: fungicidal activity of NK1-antagonists alone; assay type: cell-based; details: NK1-antagonist alone, at higher concentrations
[2] = tested on: resistant Candida auris strains; details: with fluconazole, voriconazole, itraconazole, cited from earlier work

Row | Compound | independent fungicidal activity [1] | synergistic enhancement of triazole antifungal activity ([2]; C. auris) | restoration of triazole susceptibility ([2]; several resistant Candida auris strains)
1 | Cc1ccccc1-c1cc(N2CCN(C)CC2)ncc1N(C)C(=O)C(C)(C)c1cc(C(F)(F)F)cc(C(F)(F)F)c1 [netupitant, 2-[3,5-bis(trifluoromethyl)phenyl]-N, 2-dimethyl-N-[4-(2-methylphenyl)-6-(4-methylpiperazin-1-yl)pyridin-3-yl]propanamide] | fungicidal activity |  | 
2 | C[C@@H](O[C@H]1OCCN(Cc2nc(=O)[nH][nH]2)[C@H]1c1ccc(F)cc1)c1cc(C(F)(F)F)cc(C(F)(F)F)c1 [aprepitant, 5-[[(2R,3S)-2-[(1R)-1-[3,5-bis(trifluoromethyl)phenyl]ethoxy]-3-(4-fluorophenyl)-4-morpholinyl]methyl]-1,2-dihydro-3H-1,2,4-triazol-3-one] |  | synergistically enhance the activity | restore fluconazole-, voriconazole-, and itraconazole-susceptibility
3 | C[C@@H](OC[C@@]1(c2ccccc2)CC[C@]2(CCC(=O)N2)CN1)c1cc(C(F)(F)F)cc(C(F)(F)F)c1 [rolapitant, (5S,8S)-8-[[(1R)-1-[3,5-bis(trifluoromethyl)phenyl]ethoxy]methyl]-8-phenyl-1,9-diazaspiro[4. 5]decan-2-one] | fungicidal activity |  | 
